Counter-ions that a name gives are not always drawn.
Experiments:
[1] = target: Dopamine D3 (Homo sapiens, UniProt P35462); test: Dopamine D3 binding
Excerpt: (§1) Further, the compounds of the invention may be tested in binding assays and functional activity assays by well known methods for other physiologically important receptors such as, but not limited to, the hERO channel, other serotonin receptors (specifically 5-HT1B, 5-HT1D, receptors, lack of agonist activity at 5-HT2B receptors, 5-HT2C, 5-HT5, 5-HT6, and 5-HT7 receptors), dopaminergic receptors (specifically D1, D2, and D3), GABAA receptors, adrenergic receptors and monoamine transporters.

[2] = target: Norepinephrine Transport (Homo sapiens, UniProt P23975); test: Norepinephrine transporter binding
Chain of Norepinephrine Transport (P23975 whole entry): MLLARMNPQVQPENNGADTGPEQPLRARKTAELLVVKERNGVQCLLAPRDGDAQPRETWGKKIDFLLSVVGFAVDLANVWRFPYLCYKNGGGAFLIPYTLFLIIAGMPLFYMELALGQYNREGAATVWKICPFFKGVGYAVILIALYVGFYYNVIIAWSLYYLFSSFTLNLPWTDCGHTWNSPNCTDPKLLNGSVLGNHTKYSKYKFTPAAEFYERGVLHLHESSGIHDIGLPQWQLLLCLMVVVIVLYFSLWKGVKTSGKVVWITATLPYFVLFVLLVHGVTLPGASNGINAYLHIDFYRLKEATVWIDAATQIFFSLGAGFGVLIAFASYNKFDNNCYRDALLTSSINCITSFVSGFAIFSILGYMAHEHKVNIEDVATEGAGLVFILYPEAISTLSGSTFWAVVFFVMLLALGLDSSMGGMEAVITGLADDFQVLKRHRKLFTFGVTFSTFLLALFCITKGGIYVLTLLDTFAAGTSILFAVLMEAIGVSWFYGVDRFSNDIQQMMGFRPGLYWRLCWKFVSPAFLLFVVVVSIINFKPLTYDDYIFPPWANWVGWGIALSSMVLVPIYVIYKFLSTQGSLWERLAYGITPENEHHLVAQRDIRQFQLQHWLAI
Excerpt: as §1

[3] = tested on: Rats; test: Sleep and behavioral monitoring in rats (EEG, EMG, motion); format: in vivo
Procedure: The compound of the present invention is tested in rats for its ability to increase the amount of sleep or decrease sleep interruption or both without undesired effects such as inhibition of REM sleep, waking motor impairment, and/or rebound insomnia. Test animals are continuously monitored by electro-encephalograms (EEG), electromyograms (EMG), and motion to measure cumulative nonREM sleep, cumulative total sleep, average sleep bout duration, longest sleep bout duration, rebound insomnia. REM sleep inhibition and locomotor activity intensity during wakefulness. Methods for such studies are known in the art (see for example methods described in Edgar D M, Seidel W F. Modafinil induces wakefulness without intensifying motor activity or subsequent rebound hypersomnolence in the rat. J Pharmacology & Experimental Therapeutics 1997; 283: 757-769; van Gelder R N, Edgar D M, Dement W C. Real-time automated sleep scoring: validation of a microcomputer-based system for mice. Sleep 1991, 14: 48-55; and Gross B A, Walsh C M, Turakhia A A, Booth V, Mashour G A, Poe G R. Open-source logic-based automated sleep scoring software using electrophysiological recordings in rats. J Neurosci Methods. 2009; 184(1):10-8.) Studies are conducted as follows:
Adult, male Wistar rats (approximately 270-300 g at time of surgery) are surgically fitted for chronic recording of EEG, EMG, and motion as follows: Rats are surgically prepared with a cranial implant consisting of four stainless steel screws for EEG recording (two frontal [3.9 mm anterior from bregma, and ±2.0 mm mediolaterally] and two occipital [6.4 mm posterior from bregma, ±5.5 mm mediolaterally]), and with two Teflon-coated stainless steel wires for EMG recording (positioned under the nuchal trapezoid muscles). All leads are soldered to a miniature connector (Microtech, Boothwyn, Pa.) prior to surgery. The implant assembly is affixed to the skull by the combination of the stainless steel EEG recording screws, cyanoacrylate applied between the implant connector and skull, and dental acrylic. Locomotor activity is monitored via a miniature transmitter (Minimitter PDT4000G, Philips Respironics, Bend, Oreg.) surgically placed into the abdomen. At least 3 weeks are allowed for recovery.
Each rat is housed individually within a microisolator cage modified with an inserted polycarbonate filter-top riser to allow more vertical headroom. A flexible cable that minimally restricts movement is connected at one end to a commutator afixed to the cage top and at the other end to the animal's cranial implant. Each cage is located within separate, ventilated compartments of a stainless steel sleep-wake recording chamber. Food and water are available ad libitum and the ambient temperature is maintained at about 23±1° C. A 24-hr light-dark cycle (LD 12:12) using fluorescent light is maintained throughout the study. Relative humidity averages approximately 50%. Animals are undisturbed for at least 30 hrs before and after each treatment.
The vehicle (placebo, methylcellulose 15 centipoise 0.25% in water) or one of the test compound dose levels is administered orally at 1 mL/kg pseudo-randomly such that no rat receives the same treatment twice, and no rat receives more than two of the 8 treatments in any one study. Each rat is removed from its cage for about a minute to be weighed and treated. At least 6 days “washout” period precede and follow each treatment. […]

[4] = Plasma clearance, rat; format: in vivo; settings: male, Sprague Dawley, 1 mg/kg, intravenous, 1 mL/kg of 1.0 mg/mL
Procedure: Male Sprague Dawley rats (body weight range 250-320 g) with indwelling femoral arterial cannulae are obtained from Charles River, Wilmington, Mass. 01887, USA. Test compound is administered intravenously in solution (1 mL/kg) in 20% Captisol® in 22.5 mM phosphate buffer, pH 2, at a final drug concentration of 1.0 mg/mL (free base equivalents). Blood samples are obtained using the indwelling cannula over 24 hr. Samples of plasma are obtained by centrifugation and stored frozen (−20° C.), or on dry ice, prior to analysis. Frozen plasma samples are thawed to room temperature for bioanalysis of concentrations of test compound. A related internal standard compound in acetonitrile/methanol (1:1, v/v) is added to all samples of plasma (1:1, v/v). The samples are centrifuged to remove precipitated protein prior to analysis. The supernatants are analysed by injection and rapid gradient elution on a Javelin Betasil C18 column (20×2.1 mm cartridge, Mobile phase A: Water/1 M NH4HCO3, 2000:10 v/v, Mobile Phase B: MeOH/1 M NH4HCO3, 2000:10 v/v). The eluted analytes are detected by LC-MS-MS analysis using a Sciex API 4000 triple quadrupole mass spectrometer. Concentrations of compound are determined from standards prepared and analysed under identical conditions. Clearance is calculated using non-compartmental analysis in Watson 7.4, Thermo Fisher Scientific, Inc.

[5] = threshold efficacy dose, 4 parameter logistic regression, 6 hr. after treatment, rat PO

Chain of Dopamine D3 (P35462 whole entry): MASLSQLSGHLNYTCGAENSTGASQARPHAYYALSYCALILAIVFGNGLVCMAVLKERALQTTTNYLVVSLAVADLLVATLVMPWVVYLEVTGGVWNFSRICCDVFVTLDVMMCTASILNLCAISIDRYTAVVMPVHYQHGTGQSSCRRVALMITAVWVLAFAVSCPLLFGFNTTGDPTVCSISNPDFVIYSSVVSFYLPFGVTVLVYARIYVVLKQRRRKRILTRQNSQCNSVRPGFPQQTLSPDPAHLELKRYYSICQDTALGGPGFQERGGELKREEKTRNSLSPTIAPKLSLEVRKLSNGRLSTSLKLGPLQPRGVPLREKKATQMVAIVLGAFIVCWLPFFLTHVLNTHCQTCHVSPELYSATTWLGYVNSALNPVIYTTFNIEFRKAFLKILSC

Cc1ccc2c(c1)Oc1sc(C)cc1C(N1CCN(CC(C)(C)C(=O)O)CC1)=N2 [Example 2, 3-[4-(2,8-Dimethylthieno[2,3-b][1,5]benzoxazepin-4-yl)piperazin-1-yl]-2,2-dimethyl-propanoic acid dihydrochloride]
Ki [1]: > 5.66 µM
Ki [2]: > 0.674 µM
apparent REM sleep inhibition, statistical significance ([3]; 0.25 mg/kg and 0.025 mg/kg, rat): not statistically significant
REM sleep inhibition against the threshold value (−10 min.) ([3]; 3 mg/kg, rat): exceeded the threshold value
cumulative NREM sleep time (in words) ([3]; 3 mg/kg, rat): significantly increase
cumulative total sleep time (in words) ([3]; 3 mg/kg, rat): significantly increase
inhibition of locomotor intensity (LMI) (in words) ([3]; 3 mg/kg, rat): without significant
rebound insomnia (in words) ([3]; 3 mg/kg, rat): without significant rebound insomnia
REM sleep inhibition (overall conclusion, in words) ([3]; rat sleep study): cannot be ruled out
rebound insomnia or reduction in LMI within 10 times the most conservative efficacy dose ([3]; rat, efficacy dose 0.26 mg/kg): no undesired occurences of REM rebound insomnia, or reduction in LMI are observed
Estimated efficacy dose, NREM accumulation = 30 min. [3, 5]: 0.05 mg/kg
Estimated efficacy dose, average sleep bout (1.5-fold increase) [3, 5]: 0.21 mg/kg
Estimated efficacy dose, longest sleep bout (1.75-fold increase) [3, 5]: 0.26 mg/kg
Estimated efficacy dose, total sleep accumulation = 25 min. [3, 5]: 0.07 mg/kg
clearance [4]: 1.62 L/h/kg
